Laboratory results from patent US10905761B2, “Use of a lipopeptide or lipoprotein as an adjuvant in therapeutic or prophylactic vaccinations” (HELMHOLTZ-ZENTRUM FUER INFEKTIONSFORSCHUNG GMBH, priority 2002, dated 2021).

Key:
Assay type in all cases: in vivo
BALB/c (H-2d) mice [1] = assay: Kinetics of β-gal-specific IgG responses in sera of mice immunized i.n. or i.p. (Example 4); conditions: pure β-galactosidase 50 μg/dose i.n.; after a second boost
Protocol: Groups of animals (n=5) were immunized either i.n. (A) or i.p. (B) with 50 μg of β-gal ( ), β-gal plus 10 μg of CTB ( ), β-gal plus 0.5 μg of MALP-2 ( ) or pure buffer solution ( ). The days of the immunizations (day 0, 14 and 21) are marked by arrows. The results are shown as the reciprocal log2 of the geometric endpoint titer, and the SEM […] is indicated by means of vertical lines.
Six- to eight-week old female BALB/c (H-2d) mice were purchased from Harlan Winkelmann GmbH (Borchen, Germany) and treated in accordance with local and EU directives. Groups each of 5 mice were immunized on day 1, 14 and 21 either with 40 μg of pure β-galactosidase (Boehringer, Mannheim, Germany) with admixture of 0.5 μg of synthetic MALP-2 or 10 μg of cholera toxin B subunit (CTB; ICN Biomedicals Inc., Ohio) as standard adjuvant. For intranasal administration (i.n.), 10 μl were administered into each nostril, while for the i.p. injection β-galactosidase was resuspended with or without MALP-2 in 400, 100 or 100 μl of PBS. Serum samples were taken at various times (day 0, 13, 20 and 30) and stored at −20° C. until the β-galactosidase-specific antibodies were determined. Nunc-Immuno MaxiSorp assay plates with 96 wells (Nunc, Roskilde, Denmark) were coated with 100 μl of β-gal (Boehringer, Mannheim, Germany) with 5 μg/ml in 0.05 M […] (pH 8.2) per well. Serial two-fold dilutions of the sera or lavages in PBS with 1% BSA and 0.05% Tween-20 were added (100 μl/well) and the plates were incubated at 37° C. for 24 hours. After rinsing, biotinylated γ chain-specific goat anti-mouse IgG (Sigma Chemie, Deisenhofen, Germany) was added, and the plates were incubated at 37° C. for a further hour. After rinsing four times, 100 μl of peroxidase-conjugated streptavidin (Pharmingen) were added to the […], and the plates were incubated at 37° C. for 30 minutes. After rinsing four times, the reactions were developed by means of ABTS in 0.1 M citrate-phosphate buffer (pH 4.35) which contained 0.01% H2O2.

BALB/c (H-2d) mice [2] = assay: β-Galactosidase-specific IgA in lung and vaginal lavages of mice immunized i.n. (Example 5); conditions: i.n. immunization; day 31
Protocol: The results are shown as percentage of β-galactosidase-specific IgA in relation to the total IgA present. The SEM is indicated by vertical lines.
The mice were sacrificed on day 31, and the final samples were taken. Vaginal and lung lavages were obtained by rinsing the organs with 1 ml of PBS supplemented by 50 mM EDTA, 0.1% BSA and 10 mM PMSF. The lavages were then centrifuged in order to remove tissue detritus (10 min at 3000×g) and the remaining liquid was stored at −20° C. In order to determine the total IgA concentration in the rinsings from lung and vagina, serial dilutions of the corresponding samples were incubated in microtiter plates, these plates having previously been coated with goat anti-mouse IgA (Sigma Chemie) as capture antibody (100 μl/well). Serial dilutions of purified mouse IgA (Sigma Chemie) were used to produce a standard plot.

BALB/c (H-2d) mice [3] = assay: β-Galactosidase-specific T-cell proliferation of spleen and regional lymph node cells of immunized mice (Example 7); conditions: day 31
Protocol: The cells were restimulated in vitro with various concentrations of soluble β-galactosidase for four days. The results are shown as average cpm subtracted from the background values for unstimulated cells from groups of three. The SEM is depicted by vertical lines.
Lymph nodes located below the lower jaw and the spleens were removed and put together for the analysis of the cellular immune responses. The cells were grown in RPMI 1640 supplemented by 10% fetal calf serum, 10 U/ml penicillin, 50 μg/ml streptomycin, 5×10^−5 M 2-mercaptoethanol and 1 mM L-glutamine (GIBCO BRL, Karlsruhe, Germany) and stored at 37° C. in a moist atmosphere with 5% CO2. The suspensions of lymph node and spleen cells were adjusted to 5×10^6 cells/ml in complete medium and put in a flat-bottomed 96-well microtiter plate (Nunc) with 100 μl/well, and the plates were incubated in the presence of various concentrations of soluble β-galactosidase for 4 days. Each concentration was tested in groups of three. During the last 18 hours of the incubation, 1 ρCi of [^3H]thymidine (Amersham International, Freiburg, Germany) was added to each well. The cells were then harvested on filter paper (Filtermat A; Wallac, Freiburg, Germany) using a cell harvester (Inotech, Wohlen, Switzerland), and the amount of incorporated [^3H]thymidine in the DNA of the proliferated cells was determined with the aid of a […] (Wallac 1450, Micro-Trilux). The results have been shown as the arithmetic mean of the uptake of [^3H]thymidine in cpm.

BALB/c (H-2d) mice [4] = assay: β-Galactosidase-specific IgG isotypes in the serum of immunized mice (ELISA, Example 8); conditions: average ± SEM, 5 mice per group
BALB/c (H-2d) mice [5] = tested on: BALB/c (H-2d) mice
[6] = mice immunized i.p. with pure β-galactosidase

| Substance | β-galactosidase-specific antibody endpoint titer in serum (BALB/c (H-2d) mice [1]) | β-galactosidase-specific IgA in lung rinsings (BALB/c (H-2d) mice [2]) | proliferation of lymph node and spleen cells after in vitro restimulation with β-galactosidase (BALB/c (H-2d) mice [3]; i.n. immunization) | proliferation of spleen cells after in vitro restimulation with β-galactosidase (BALB/c (H-2d) mice [3]; i.p. immunization) | β-Galactosidase-specific IgG1 in serum (BALB/c (H-2d) mice [4]; i.n.) | β-Galactosidase-specific IgG2a in serum (BALB/c (H-2d) mice [4]; i.n.) | β-Galactosidase-specific IgG2b in serum (BALB/c (H-2d) mice [4]; i.n.) | β-Galactosidase-specific IgG3 in serum (BALB/c (H-2d) mice [4]; i.n.) | β-Galactosidase-specific IgG1 in serum (BALB/c (H-2d) mice [4]; i.p.) | β-Galactosidase-specific IgG2a in serum (BALB/c (H-2d) mice [4]; i.p.) | β-Galactosidase-specific IgG2b in serum (BALB/c (H-2d) mice [4]; i.p.) | β-Galactosidase-specific IgG3 in serum (BALB/c (H-2d) mice [4]; i.p.) | Th1 cytokines IL-2 and IFN-γ secreted by restimulated cells (BALB/c (H-2d) mice [5]; [6]) | secretion of IL-10 and IL-4 by restimulated cells (BALB/c (H-2d) mice [5]; [6]) | IL-10 content in supernatants of spleen cells stimulated in vitro (BALB/c (H-2d) mice [5]; mice immunized i.n., β-gal restimulation) |
| --- | --- | --- | --- | --- | --- | --- | --- | --- | --- | --- | --- | --- | --- | --- | --- |
| β-gal: model antigen β-galactosidase administered pure, without adjuvant | about 1000 | no production of β-galactosidase-specific IgA in detectable quantity | no detectable cell proliferation | significant proliferation response | 22.6 ± 21.3 µg/mL | 0.7 ± 0.5 µg/mL | 0.3 ± 0.1 µg/mL | 0.6 ± 0.0 µg/mL | 191.5 ± 132.1 µg/mL | 0.1 ± 0.0 µg/mL | 0.5 ± 0.1 µg/mL | 0.6 ± 0.0 µg/mL | below the limit of detection | stimulated |  |
| CTB [reference compound] |  |  |  |  |  |  |  |  |  |  |  |  |  |  | 0.6 ng/mL |
